The source of these data is PubChem BioAssay (NCI).

Holding throughout (test): NCI tumour cell line growth inhibition, 48 h
In assay [1] the test system is A498 renal.
Assay [2] deals with A549 NSCLC.
For assay [3], the system named is CAKI-1 renal.
The test system of assay [4] is DU-145 prostate.
The subject of assay [5] is HL-60(TB) leukemia.
In assay [6] the test system is HT29 colon.
For assay [7], the system named is K-562 leukemia.
Assay [8] relates to OVCAR-3 ovarian.
For assay [9], the system named is OVCAR-4 ovarian.
For assay [10], the system named is SN12C renal.

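Briefly, cells in 96-well plates were exposed to five compound concentrations for 48 h, and endpoints were estimated by linear interpolation. The concentration for 50% growth inhibition is given as GI50. TGI is the concentration that stops growth completely.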

In the case of `CN(/N=N/c1nc(OCc2ccccc2)c2[nH]cnc2n1)C(=O)N(C)/N=N/c1nc(OCc2ccccc2)c2[nH]cnc2n1`, the GI50 in assay [1] is 19700 nM; in [2], 56000 nM; in assay [3], 17000 nM; in assay [4], 38900 nM; in assay [5] it was 63700 nM; in assay [6], 60500 nM. The GI50 is 75800 nM in assay [7], 34800 nM in [8], greater than 100000 nM in [9] and 56600 nM in [10]. Further, the TGI in assay [1] is 54000 nM; in assay [2], greater than 100000 nM; in assay [3], 63500 nM; in assay [4], greater than 100000 nM; in assay [5] it was greater than 100000 nM; in [6], greater than 100000 nM. Besides, the TGI in [7], in assay [8], in assay [9] and in assay [10] was greater than 100000 nM each time.
Turning to `O=C(N/N=C/c1ccc(O)cc1O)c1ccc(Nc2ccnc(C(F)(F)F)c2)cc1`, the GI50 was greater than 41300 nM in assay [1]; greater than 100000 nM in assay [2]; 53.3 nM in assay [3]; 21900 nM in assay [4]; greater than 34100 nM in assay [5]; greater than 100000 nM in assay [6]. In addition, the GI50 is greater than 20700 nM in assay [7], 350 nM in assay [8] and 24400 nM in assay [10]. The TGI in [1] was 97400 nM; in assay [2], greater than 100000 nM; in assay [3], 1800 nM; in assay [4], greater than 100000 nM; in assay [5] it was greater than 100000 nM; in assay [6] it was greater than 100000 nM. Further, the TGI in assay [7], in assay [8], in assay [9] and in assay [10] was greater than 100000 nM in each case.
For the compound `Cc1cc2c(C(N)=O)cccc2n1-c1nc2c(c(NCc3ccccc3)n1)CCCN2`, the GI50 in [1] was 212 nM; in assay [2], 220 nM; in assay [3] it was 151 nM; in assay [4], 290 nM; in [5], 228 nM; in assay [6] it was 215 nM. The GI50 in assay [7] is 95.5 nM; in assay [8], 206 nM; in assay [9] it was 178 nM; in [10], 134 nM. The TGI in assay [1] was 362 nM; in assay [2] it was 543 nM; in assay [3], 333 nM; in assay [4] it was 783 nM; in assay [5] it was 1010 nM; in assay [6], 485 nM. The TGI is 2920 nM in assay [7], 410 nM in [8], 396 nM in assay [9] and 335 nM in assay [10].
In the case of `CNC1NC(=O)c2ccccc2N1Cc1ccc(F)cc1` (stereo not drawn), the TGI in assay [1], in assay [2], in assay [3], in [4], in assay [5] and in assay [6] was greater than 100000 nM in each case. The TGI in [7], in assay [8], in [9] and in assay [10] was greater than 100000 nM in each case.
For `C#CC[C@H](c1nc2cc(Cl)ccc2c(=O)n1Nc1ccccc1)N(CCCN)C(=O)c1cccc(Cl)c1F`, the GI50 in assay [1] is 626 nM; in assay [2], 255 nM; in assay [3], 2600 nM; in assay [4], 215 nM; in assay [5], 130 nM; in assay [6], 337 nM. The GI50 in [7] was 96.8 nM; in [8] it was 242 nM; in [9] it was 1160 nM; in [10], 205 nM. The TGI in [1] worked out at 3430 nM; in [2], 1870 nM; in assay [3] it was 8190 nM; in [4], 750 nM; in assay [5], 605 nM; in assay [6], 1320 nM. The TGI came to 1850 nM in assay [7], 1190 nM in assay [8], 2540 nM in assay [9] and 1980 nM in assay [10].
For `c1cncc(CNc2ccccc2-c2nnc(Nc3ccc4c(c3)OCCO4)o2)c1`, the GI50 in assay [1] was 138 nM; in assay [2] it was 294 nM; in assay [3] it was 215 nM; in assay [4], 244 nM; in [5], 103 nM; in assay [6], 50.4 nM. For the same compound, the GI50 in assay [7] is 43.2 nM; in assay [8], 45.2 nM; in assay [9], 549 nM; in assay [10], 482 nM. Moreover, the TGI is 1800 nM in assay [1]; greater than 100000 nM in assay [2]; greater than 100000 nM in [3]; 1540 nM in assay [4]; 3340 nM in assay [5]; 15200 nM in [6]. Also, the TGI in assay [7] is greater than 100000 nM; in [8] it was 228 nM; in assay [9], 42500 nM; in assay [10], greater than 100000 nM.
Take `Clc1cc(Cl)cc(N2N=C(c3cccc(Nc4ccncc4)c3)CC2c2ccc(Br)cc2)c1` (stereo not drawn): the GI50 in assay [1] was 1080 nM; in assay [3], 1540 nM; in assay [4] it was 1840 nM; in assay [5], 2440 nM; in assay [6] it was 1870 nM; in assay [7] it was 2260 nM. The GI50 was 1720 nM in assay [8], 1600 nM in assay [9] and 1670 nM in assay [10]. Moreover, the TGI in assay [1] turned out to be 2300 nM; in [3], 2910 nM; in assay [4], 3410 nM; in assay [5] it was 6080 nM; in assay [6], 3660 nM; in [7], 5690 nM. In addition, the TGI in assay [8] was 3210 nM; in assay [9], 2960 nM; in assay [10] it was 3110 nM.
In the case of `CCOC(=O)C#Cc1ccc(C#CC(=O)OCC)cc1`, the TGI is greater than 51500 nM in assay [1]; greater than 37500 nM in assay [2]; greater than 20200 nM in assay [3]; greater than 28000 nM in assay [4]; 6340 nM in assay [5]; 5270 nM in [6]. Also, the TGI in assay [8] was greater than 20500 nM.
On to `Cc1c(Cl)cccc1NC(=O)c1sc2nc3c(cc2c1N)CCCCCC3`, for which the GI50 is 202 nM in [1]; 369 nM in assay [2]; 258 nM in [4]; 158 nM in assay [5]; 188 nM in assay [6]; 113 nM in assay [7]. Further, the figures for the GI50 in assay [8], in [9] and in assay [10] were 174 nM, 936 nM and 408 nM, respectively. Moreover, the TGI in assay [1] is 9160 nM; in [2], greater than 50000 nM; in assay [4], greater than 50000 nM; in [5], 3400 nM; in [6] it was 6560 nM; in assay [7] it was greater than 50000 nM. For the same compound, the figures for the TGI in assay [8], in [9] and in [10] were 1210 nM, 15200 nM and greater than 50000 nM, respectively.
As to `NC(=NC1CCCCCC1)c1ccc(N2CCN(c3ccc(C(N)=NC4CCCCCC4)cc3)CC2)cc1`, the GI50 in assay [2] was 9290 nM; in assay [3] it was greater than 50000 nM; in [4] it was 7590 nM; in [5], 14100 nM; in assay [6], 9300 nM; in assay [7], 4570 nM. Also, the GI50 was 4280 nM in [8], 26600 nM in assay [9] and 2330 nM in [10]. The TGI in [2], in assay [3], in assay [4], in [5], in assay [6] and in assay [7] was greater than 50000 nM in each case. In addition, the TGI was 28800 nM in assay [8], greater than 50000 nM in assay [9] and 16900 nM in assay [10].
Turning to `NC1CCC[C@@H](O)[C@H]1O` (stereo partly drawn), the TGI in assay [1], in [2], in assay [3], in assay [4], in assay [5] and in assay [6] was greater than 100000 nM throughout. Besides, the TGI in assay [7], in assay [8] and in [10] was greater than 100000 nM in each case.
Take `Cl.Fc1c[c-]c(-c2ccccn2)c(F)c1.[Pt].c1ccc([PH+](CC[PH+](c2ccccc2)c2ccccc2)c2ccccc2)cc1`: the GI50 in [1] was 103 nM; in assay [3], 246 nM; in assay [4], 65.6 nM; in assay [5] it was 56.3 nM; in assay [7] it was 36.9 nM; in [8], 82.7 nM. Besides, in assay [9], the GI50 is 187 nM. Besides, the TGI in [1] worked out at 478 nM; in assay [3], 948 nM; in assay [4], 1200 nM; in assay [5], 319 nM; in [8], 414 nM; in [9], 1010 nM.
Take `Cn1c2ccc([N+](=O)[O-])cc2c(=O)c2c(O)cc(O)cc21`: the TGI in assay [1], in assay [2], in assay [3], in assay [4], in assay [5] and in [7] was greater than 100000 nM each time. In addition, the TGI in assay [8], in assay [9] and in assay [10] was greater than 100000 nM in each case.
Consider `COC[C@H]1OC(=O)c2coc3c2[C@@]1(C)C1=C(C3=O)[C@@H]2CCC(=O)[C@@]2(C)C[C@H]1OC(C)=O`, for which the GI50 in assay [1] was 580 nM; in assay [5], 2980 nM; in assay [9] it was 18600 nM. The TGI is 17300 nM in [1]; greater than 100000 nM in assay [2]; greater than 100000 nM in assay [4]; 53700 nM in [5]; 97800 nM in assay [6]; greater than 100000 nM in [7]. Moreover, the TGI in assay [8] was greater than 78100 nM; in [9] it was greater than 100000 nM; in assay [10], greater than 100000 nM.
